Laboratory results reported in patent US9023789B2, “Amylin analogs and pharmaceutical compositions thereof” (Novo Nordisk A/S, priority 2012, dated 2015).
Where two headings read alike, the source gives them in different places. Numbered stars: 1 amine (or outer) side, 2 acyl side, 3 side chain; on linkers, the order of the positions; unused ones are H or OH. Bridge positions count the residues as written; N and C are the ends. Side chains are listed from the residue outwards. Peptide text beside a SMILES is read from it. * marks the point of attachment. C20 diacid = O=C(O)CCCCCCCCCCCCCCCCCCC(=O)*; γGlu = O=C(O)[C@H](CCC(=O)[*:2])N[*:1]; AEEA = NCCOCCOCC(=O)O

Experiments:
[1] = target: T1, rat amylin receptor (rat calcitonin receptor + rat RAMP 3) (Rattus norvegicus, UniProt P32214+Q9JJ73); test: ASSAY (VI) binding to the rat amylin receptor
T1 construct: expressed in transfected cells; host or cells: BHK tk'ts 13 (transient, FuGENE 6), membranes
T1 sequence (P32214 25-479 isoform P32214-2 limits assumed): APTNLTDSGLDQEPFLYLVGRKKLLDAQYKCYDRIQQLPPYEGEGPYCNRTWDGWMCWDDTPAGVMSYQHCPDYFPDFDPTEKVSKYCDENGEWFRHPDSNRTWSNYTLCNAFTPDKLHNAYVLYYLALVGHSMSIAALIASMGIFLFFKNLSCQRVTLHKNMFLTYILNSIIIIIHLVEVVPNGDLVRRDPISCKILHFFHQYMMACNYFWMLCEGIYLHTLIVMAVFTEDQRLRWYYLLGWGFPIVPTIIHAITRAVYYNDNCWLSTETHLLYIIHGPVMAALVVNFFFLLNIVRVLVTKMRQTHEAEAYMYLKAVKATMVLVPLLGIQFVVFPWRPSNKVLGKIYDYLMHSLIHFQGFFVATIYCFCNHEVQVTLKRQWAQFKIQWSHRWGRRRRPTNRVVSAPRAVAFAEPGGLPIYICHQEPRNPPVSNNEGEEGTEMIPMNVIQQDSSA
T1 sequence (Q9JJ73 23-147 partner): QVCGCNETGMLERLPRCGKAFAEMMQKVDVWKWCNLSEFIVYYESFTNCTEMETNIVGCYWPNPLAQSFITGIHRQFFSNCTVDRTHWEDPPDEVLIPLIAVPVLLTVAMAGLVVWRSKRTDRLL
Procedure, shortened: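 Binding to the rat amylin receptor was determined with membrane preparations. The receptor was expressed by transiently transfecting BHK tk′ts 13 cells with rat calcitonin receptor, using FuGENE® 6 (Roche) according to the manufacturer's recommendations. Roughly 48 hours later the cells were harvested and their membranes isolated.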

rat calcitonin receptor = target: T2, rat calcitonin receptor (Rattus norvegicus, UniProt P32214); test: ASSAY (VIII) binding to the rat calcitonin receptor; conditions: Table 7, read-out: rCTR bind IC50
T2 construct: expressed in transfected cells; host or cells: BHK tk'ts 13 (transient, FuGENE 6), membranes
T2 sequence (P32214 25-479 isoform P32214-2 limits assumed): T1 sequence (P32214 25-479 isoform P32214-2 limits assumed)
Procedure, shortened: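 Membranes were prepared from BHK tk′ts 13 cells transiently transfected with rat calcitonin receptor. Cells were grown in DMEM with 10% FBS and harvested approximately 48 hours after transfection.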

[2] = target: T3, human amylin receptor (membranes from Amylin 3(a)/CRE-luc cells) (Homo sapiens, UniProt O60896+P30988); test: ASSAY (V) binding to the human amylin receptor (SPA, 125I-rat amylin);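 also: competition binding of cell membranes (35 ng/µL) mixed with SPA beads in 384-well plates at 40 µL total volume, read by scintillation counting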
T3 construct: expressed in transfected cells
T3 sequence (P30988 25-474): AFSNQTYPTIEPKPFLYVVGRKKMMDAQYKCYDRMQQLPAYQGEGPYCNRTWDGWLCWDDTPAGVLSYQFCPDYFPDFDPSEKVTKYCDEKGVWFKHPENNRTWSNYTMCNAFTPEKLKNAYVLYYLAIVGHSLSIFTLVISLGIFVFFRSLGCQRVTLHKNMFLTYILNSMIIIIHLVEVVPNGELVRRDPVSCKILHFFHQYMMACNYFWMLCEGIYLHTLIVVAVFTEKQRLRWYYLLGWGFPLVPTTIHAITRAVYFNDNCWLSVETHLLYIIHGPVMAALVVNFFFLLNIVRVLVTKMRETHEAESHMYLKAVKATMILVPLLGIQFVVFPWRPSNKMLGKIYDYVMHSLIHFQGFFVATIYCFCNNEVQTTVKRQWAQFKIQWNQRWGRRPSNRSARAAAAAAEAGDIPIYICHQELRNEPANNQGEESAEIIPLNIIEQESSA
T3 sequence (O60896 24-148 partner): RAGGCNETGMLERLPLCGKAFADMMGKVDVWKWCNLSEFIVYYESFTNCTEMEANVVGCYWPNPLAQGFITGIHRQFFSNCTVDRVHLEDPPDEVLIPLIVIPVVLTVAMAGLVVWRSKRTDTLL

[3] = ASSAY (IV) determination of solubility; type: physicochemical
Procedure, shortened: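 Polypeptide in water at […] mixed 1:1 with 100 mM buffers of pH 3.0-8.0 (glycylglycine pH 3-5, bistrispropane pH 6-8). Held 18 h at room temperature, then centrifuged; concentration remaining in solution measured by UPLC.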

[4] = Table 7, binding to rat amylin receptor, read-out: rAmylin-R bind IC50
[5] = Table 7, rat binding selectivity, rCTR IC50 / rAmylin-R IC50
[6] = Table 7a (preferred compounds), rat binding selectivity, rCTR IC50 / rAmylin-R IC50
[7] = ratio of rCTR bind IC50 to rAmylin-R bind IC50
[8] = Table 5, selectivity, hCTR bind IC50 / hAmylin-R bind IC50
[9] = Table 5a, selectivity, hCTR bind IC50 / hAmylin-R bind IC50
[10] = Table 5b, selectivity, hCTR bind IC50 / hAmylin-R bind IC50
[11] = Table 5c, selectivity, hCTR bind IC50 / hAmylin-R bind IC50
[12] = Table 7, human binding selectivity, included for comparison
[13] = Table 7a (preferred compounds), human binding selectivity, included for comparison
[14] = ratio of human calcitonin receptor binding IC50 to human amylin receptor binding IC50
[15] = bistrispropane buffer, pH 6.5, read-out: Solubility pH 6.5 Concentration
[16] = bistrispropane buffer, pH 7.5, read-out: Solubility pH 7.5 Concentration
[17] = bistrispropane buffer, pH 6.0, read-out: Solubility pH 6.0 Concentration
[18] = bistrispropane buffer, pH 7.0, read-out: Solubility pH 7.0 Concentration
[19] = bistrispropane buffer, pH 8.0, read-out: Solubility pH 8.0 Concentration
[20] = glycylglycine buffer, pH 3.0, read-out: Solubility pH 3.0 Concentration
[21] = glycylglycine buffer, pH 4.0, read-out: Solubility pH 4.0 Concentration
[22] = glycylglycine buffer, pH 5.0, read-out: Solubility pH 5.0 Concentration

SMILES | IC50 [1, 4] | Ratio rCT/rAmylin binding [1, 5] | Ratio rCT/rAmylin binding [1, 6] | Ratio rCT/rAmylin binding [1, 7] | IC50 (rat calcitonin receptor) | Ratio hCT/hAmylin binding [2, 8] | Ratio hCT/hAmylin binding [2, 9] | Ratio hCT/hAmylin binding [2, 10] | Ratio hCT/hAmylin binding [2, 11] | Ratio hCT/hAmylin binding [2, 12] | Ratio hCT/hAmylin binding [2, 13] | Ratio hCT/hAmylin binding [2, 14] | solubility at 18 h [3, 15] | solubility at 18 h [3, 16] | solubility at 18 h [3, 17] | solubility at 18 h [3, 18] | solubility at 18 h [3, 19] | solubility at 18 h [3, 20] | solubility at 18 h [3, 21] | solubility at 18 h [3, 22] | also measured
CC[C@H](C)[C@H](NC(=O)[C@H](C)NC(=O)CNC(=O)[C@H](Cc1ccccc1)NC(=O)[C@H](CC(N)=O)NC(=O)[C@@H]1CCCN1C(=O)[C@H](CO)NC(=O)[C@H](CO)NC(=O)[C@H](Cc1c[nH]cn1)NC(=O)[C@H](CCCNC(=N)N)NC(=O)[C@H](CC(C)C)NC(=O)[C@H](Cc1ccccc1)NC(=O)[C@H](CC(N)=O)NC(=O)[C@H](C)NC(=O)[C@H](CC(C)C)NC(=O)[C@H](CCCNC(=N)N)NC(=O)[C@H](CCC(N)=O)NC(=O)[C@@H](NC(=O)[C@H](C)NC(=O)[C@@H]1CSSC[C@H](NC(=O)[C@@H](N)CCCCNC(=O)COCCOCCNC(=O)CC[C@H](NC(=O)CCCCCCCCCCCCCCCCCCC(=O)O)C(=O)O)C(=O)N[C@@H](CC(N)=O)C(=O)N[C@@H]([C@@H](C)O)C(=O)N[C@@H](C)C(=O)N[C@@H]([C@@H](C)O)C(=O)N1)[C@@H](C)O)C(=O)N1CCC[C@H]1C(=O)N[C@@H](CO)C(=O)N[C@@H](CO)C(=O)N[C@H](C(=O)N[C@@H](CC(N)=O)C(=O)N[C@H](C(=O)NCC(=O)N[C@@H](CO)C(=O)N[C@@H](CCC(=O)O)C(=O)N[C@H](C(=O)N[C@@H](Cc1ccc(O)cc1)C(N)=O)[C@@H](C)O)C(C)C)[C@@H](C)O [Example 26] (H-K([AEEA-γGlu-C20 diacid])CNTATCATQRLANFLRHSSPNFGAIPSSTNVGSETY-NH2; disulfide 2-7; N-terminus assumed) | 0.491 nM | 309.2 | 309.2 | 309.2 | 152 nM | 47.5 | 47.5 | 47.5 | 47.5 | 47.5 | 47.5 | 47.5 | ≥ 200 µM | ≥ 200 µM | ≥ 200 µM | ≥ 200 µM | ≥ 200 µM | ≥ 200 µM | ≥ 200 µM | ≥ 200 µM | IC50 ([2]; Table 4, read-out: hAmylin-R bind IC50): 0.532 nM
CC[C@H](C)[C@H](NC(=O)[C@H](C)NC(=O)CNC(=O)[C@H](Cc1ccccc1)NC(=O)[C@H](CC(N)=O)NC(=O)[C@@H]1CCCN1C(=O)[C@H](CO)NC(=O)[C@H](CO)NC(=O)[C@H](Cc1c[nH]cn1)NC(=O)[C@H](CCCNC(=N)N)NC(=O)[C@H](CC(C)C)NC(=O)[C@H](Cc1ccccc1)NC(=O)[C@H](CCCCN)NC(=O)[C@H](C)NC(=O)[C@H](CC(C)C)NC(=O)[C@H](CCCNC(=N)N)NC(=O)[C@H](CCC(N)=O)NC(=O)[C@@H](NC(=O)[C@H](C)NC(=O)[C@@H]1CSSC[C@H](NC(=O)[C@@H](N)CCCCNC(=O)COCCOCCNC(=O)CC[C@H](NC(=O)CCCCCCCCCCCCCCCCCCC(=O)O)C(=O)O)C(=O)N[C@@H](CC(N)=O)C(=O)N[C@@H]([C@@H](C)O)C(=O)N[C@@H](C)C(=O)N[C@@H]([C@@H](C)O)C(=O)N1)[C@@H](C)O)C(=O)N1CCC[C@H]1C(=O)N[C@@H](CO)C(=O)N[C@@H](CO)C(=O)N[C@H](C(=O)N1CCC[C@H]1C(=O)N[C@H](C(=O)NCC(=O)N[C@@H](CO)C(=O)N[C@@H](CC(N)=O)C(=O)N[C@H](C(=O)N[C@@H](Cc1ccc(O)cc1)C(N)=O)[C@@H](C)O)C(C)C)[C@@H](C)O [Example 74] (H-K([AEEA-γGlu-C20 diacid])CNTATCATQRLAKFLRHSSPNFGAIPSSTPVGSNTY-NH2; disulfide 2-7; N-terminus assumed) | – | 22.3 | 22.3 | 22.3 | 109 nM | 101.0 | 101.0 | 101.0 | 101.0 | 101.0 | 101.0 | 101.0 | – | – | – | – | – | – | – | – | IC50 [1]: 4.89 nM; IC50 [2]: 0.791 nM; solubility at 18 h ([3]; pH 3.0, read-out: Solubility pH 3.0 Concentration): ≥ 200 µM; solubility at 18 h ([3]; pH 4.0, read-out: Solubility pH 4.0 Concentration): ≥ 200 µM; solubility at 18 h ([3]; pH 5.0, read-out: Solubility pH 5.0 Concentration): ≥ 200 µM; solubility at 18 h ([3]; pH 6.0, read-out: Solubility pH 6.0 Concentration): ≥ 200 µM; solubility at 18 h ([3]; pH 6.5, read-out: Solubility pH 6.5 Concentration): ≥ 200 µM; solubility at 18 h ([3]; pH 7.0, read-out: Solubility pH 7.0 Concentration): ≥ 200 µM; solubility at 18 h ([3]; pH 7.5, read-out: Solubility pH 7.5 Concentration): ≥ 200 µM; solubility at 18 h ([3]; pH 8.0, read-out: Solubility pH 8.0 Concentration): ≥ 200 µM
CC[C@H](C)[C@H](NC(=O)[C@H](C)NC(=O)CNC(=O)[C@H](Cc1ccccc1)NC(=O)[C@H](CC(N)=O)NC(=O)[C@@H]1CCCN1C(=O)[C@H](CO)NC(=O)[C@H](CO)NC(=O)[C@H](Cc1c[nH]cn1)NC(=O)[C@H](CCCNC(=N)N)NC(=O)[C@H](CC(C)C)NC(=O)[C@H](Cc1ccccc1)NC(=O)[C@H](CC(N)=O)NC(=O)[C@H](C)NC(=O)[C@H](CC(C)C)NC(=O)[C@H](CCCNC(=N)N)NC(=O)[C@H](CCC(N)=O)NC(=O)[C@@H](NC(=O)[C@H](C)NC(=O)[C@@H]1CSSC[C@H](NC(=O)[C@@H](N)CCCCNC(=O)CC[C@H](NC(=O)CCCCCCCCCCCCC(=O)O)C(=O)O)C(=O)N[C@@H](CC(N)=O)C(=O)N[C@@H]([C@@H](C)O)C(=O)N[C@@H](C)C(=O)N[C@@H]([C@@H](C)O)C(=O)N1)[C@@H](C)O)C(=O)N1CCC[C@H]1C(=O)N[C@@H](CO)C(=O)N[C@@H](CO)C(=O)N[C@H](C(=O)N[C@@H](CC(N)=O)C(=O)N[C@H](C(=O)NCC(=O)N[C@@H](Cc1c[nH]cn1)C(=O)N[C@@H](CC(N)=O)C(=O)N[C@H](C(=O)N[C@@H](Cc1ccc(O)cc1)C(N)=O)[C@@H](C)O)C(C)C)[C@@H](C)O [Example 112] | 2.52 nM | 280.1 | 280.1 | 280.1 | 707 nM | 23.5 | 23.5 | 23.5 | 23.5 | 23.5 | 23.5 | 23.5 | ≥ 200 µM | ≥ 200 µM | ≥ 200 µM | ≥ 200 µM | ≥ 200 µM | ≥ 200 µM | ≥ 200 µM | ≥ 200 µM | –
